Active and inactive are the calls of the source. The calls are words filed in the database; no cut-off is given here.
Legend:
[1] = system: L1210; assay: Antitumor activity against mouse L1210 cells allografted in mouse assessed as tumor growth inhibition at 400 mg/kg, ip; type: functional, organism-based; parameters: dose 400 mg/kg
[2] = system: Mus musculus; assay: Toxicity in mouse allografted with mouse L1210 cells at 25 to 400 mg/kg, ip; type: organism-based; parameters: dose 25-400 mg/kg, route intraperitoneal; conditions: in vivo
[3] = system: Mus musculus; assay: Toxicity in mouse allografted with mouse L1210 cells at 200 mg/kg, ip; type: organism-based; parameters: dose 200 mg/kg, route intraperitoneal; conditions: in vivo
[4] = Octanol-water partition coefficient, log P of the compound; type: physicochemical

Question: For `Nc1ncc2ccccc2c1-c1ccc(NC(=O)CN(CCCl)CCCl)cc1`, which TGI [1] is on record?
Answer: inactive

Question: What about the Activity [2] of the same compound?
Answer: Non-toxic

Question: Which TGI [1] does the source give for `CCNc1ncc2ccccc2c1-c1ccc(NC(=O)CCN(CCCl)CCCl)cc1.Cl` here?
Answer: inactive

Question: What about the Activity [3] of the same compound?
Answer: Toxic

Question: What about the logP [4] of the same compound?
Answer: 7.43

Question: For `Nc1ccc(-c2c(N)ncc3ccccc23)cc1`, which logP [4] is on record?
Answer: 2.58

Question: With `CC(=O)Nc1ncc2ccccc2c1-c1ccc(NC(=O)CN(CCCl)CCCl)cc1` as the compound, how does the TGI [1] read?
Answer: inactive

Question: And the logP [4]?
Answer: 3.87

Question: And the Activity [2]?
Answer: Non-toxic

Question: With `CC(=O)Nc1nc(Br)c2ccccc2c1-c1ccc(N(CCCl)CCCl)cc1.Cl` as the compound, how does the TGI [1] read?
Answer: inactive

Question: What about the Activity [2] of the same compound?
Answer: Non-toxic

Question: What does the source list for `CC(=O)Nc1ncc2ccccc2c1-c1ccc(NC(=O)CCN(CCCl)CCCl)cc1`?
Answer: TGI [1]: inactive; Activity [2]: Non-toxic

Question: Which TGI [1] does the source give for `CC(=O)Nc1ncc2ccccc2c1-c1ccc(N(CCCl)CCCl)cc1` here?
Answer: inactive

Question: What about the Activity [2] of the same compound?
Answer: Non-toxic

— ChEMBL document CHEMBL3271937, “Isoquinolines. 6. Potential central nervous system antitumor agents. Nitrogen mustards of 3-amino-4-(p-aminophenyl)isoquinoline” (J Med Chem, 1977)
